These results are taken from US9284562B2, “Biological circuit chemotactic converters” (Trustees of Boston University, priority 2009, dated 2016).

For data set [1], the system named is GFP expression. The experiment in a line: Exemplary SIMM circuit of FIG. 2B, GFP output (FIG. 2C). Format: cell-based. The following applies: inducer added to the exemplary SIMM circuit of FIG. 2B. The text has this:
FIGS. 2A-2C depict an exemplary switch-module (SIMM) for use in the converters described herein and data from the exemplary switch module (SIMM). FIG. 2A depicts an exemplary SIMM comprising a first inducible promoter sequence (P inducible,1) linked to a forward recombinase recognition site (R1RS), an inverted sequence of a second inducible promoter (P inducible,2), a recombinase sequence (Recombinase 1), and a reverse recombinase recognition site (R1RS). Further upstream of the first inducible promoter sequence of the SIMM is an inverted sequence of a constitutively active inducer agent that is specific for the second inducible promoter. Downstream of the reverse recombinase recognition site of the SIMM is an inverted sequence of a third inducible promoter (P inducible,3) and a sequence encoding a dominant negative version of the inducer agent specific for the second inducible promoter. A further component of the exemplary circuit is a sequence of the second inducible promoter operably linked to an output product. In the absence of any inducing agent, constitutive expression of the inducer agent that is specific for the second inducible promoter drives expression from the inducible promoter operably linked to an output product. […]

Data set [2] deals with Hin (Salmonella typhimurium, UniProt P03013). The following applies: relative to wild type sites hixL and hixR; cited from earlier work.
Chain of Hin (P03013 whole entry): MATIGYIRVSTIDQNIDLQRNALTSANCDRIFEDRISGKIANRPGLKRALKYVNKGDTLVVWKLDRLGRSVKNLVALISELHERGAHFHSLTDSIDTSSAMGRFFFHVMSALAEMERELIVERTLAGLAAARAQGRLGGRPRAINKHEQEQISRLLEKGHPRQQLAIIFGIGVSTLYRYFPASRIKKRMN
For data set [3], the target named is Hin recombinase (Salmonella typhimurium, UniProt P03013). The following applies: relative to hixL and hixR; cited from earlier work.
Chain of Hin recombinase (P03013 whole entry): as above
Data set [4] concerns the target signaling complex. The following applies: read-out: Affinity (Kd) for signaling complex; cited from earlier work.

`Cc1c2c(c(O)c3c(O)cccc13)C(=O)[C@]1(O)C(=O)C(C(N)=O)=C(O)[C@@H](N(C)C)[C@@H]1C2` [anhydrous tetracycline, Anhydrotetracycline]: the “Effect on GFP expression of the circuit” value in data set [1] was “inhibits GFP expression”.

Regarding “hixC: composite 26 bp symmetrical hix site, binding site for Salmonella typhimurium Hin recombinase (DNA TTATCAAAAACCATGGTTTTTGATAA; chemistry not given here)”, in data set [2], the “binding affinity for Hin” value is given as “higher binding affinity for Hin”. In addition, the “fold slower inversion rate than wild type sites hixL and hixR” value in data set [3] is on record as 16 fold.

As to `CC(C)S[C@@H]1O[C@H](CO)[C@H](O)[C@H](O)[C@H]1O` [IPTG, isopropyl β-D-1-thiogalactopyranoside], the “Effect on GFP expression of the circuit” value in data set [1] is on record as “restores the circuit to its initial state”.

For Maltose-binding protein, in data set [4], the Kd is 250 µM.
